The record followed here is US11697646B2, “Triazole N-linked carbamoyl cyclohexyl acids as LPA antagonists” (BRISTOL-MYERS SQUIBB COMPANY, priority 2017, dated 2023).

This test concerns the target T1, human LPA1 (Homo sapiens, UniProt Q92633).
T1 construct: expressed in transfected cells; host or cells: Chinese hamster ovary (CHO) cells
In words: LPA1 functional antagonist assay (calcium flux). To be noted: CHO cells overexpressing human LPA1; calcium flux induced by 10 nM LPA; read-out: hLPA1 IC50. Type of test: cell-based. Here is the method: The effectiveness of compounds of the present invention as LPA1 inhibitors can be determined in an LPA1 functional antagonist assay as follows:
The cells were then equilibrated to room temperature for 30 minutes before the assay. […] IC50 values were determined by fitting data to a 4-parameter logistic equation (GraphPad Prism, San Diego Calif.).
For orientation: A change in cytosolic calcium serves as a functional read-out for many receptors and channels.

T1 sequence (Q92633 whole entry): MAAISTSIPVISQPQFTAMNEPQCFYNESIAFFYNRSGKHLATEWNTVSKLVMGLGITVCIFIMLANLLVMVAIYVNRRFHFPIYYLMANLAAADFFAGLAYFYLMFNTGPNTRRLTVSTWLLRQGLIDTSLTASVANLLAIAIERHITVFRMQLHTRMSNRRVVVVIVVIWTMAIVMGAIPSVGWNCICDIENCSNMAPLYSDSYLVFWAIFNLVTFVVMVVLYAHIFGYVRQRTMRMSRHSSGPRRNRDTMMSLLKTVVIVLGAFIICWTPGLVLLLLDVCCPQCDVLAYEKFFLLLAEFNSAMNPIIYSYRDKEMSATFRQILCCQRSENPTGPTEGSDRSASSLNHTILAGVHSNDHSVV

For the molecule `Cc1nc(-c2nnn(C)c2CNC(=O)N(C)[C@@H](C)c2ccccc2)ccc1O[C@H]1CCC[C@H](C(=O)O)C1` [Example 132, (1S,3S)-3-((2-methyl-6-(1-methyl-5-((3-methyl-3-((S)-1-phenylethyl)ureido)methyl)-1H-1,2,3-triazol-4-yl)pyridin-3-yl)oxy)cyclohexane-1-carboxylic acid], the IC50 (usually the concentration at which inhibition is half-maximal) amounted to 276 nM. In the case of `Cc1nc(-c2nnn(C)c2CNC(=O)N(C)C(C)(C)C)ccc1O[C@H]1CCC[C@H](C(=O)O)C1` [Example 133, (1S,3S)-3-((6-(5-((3-(tert-butyl)-3-methylureido)methyl)-1-methyl-1H-1,2,3-triazol-4-yl)-2-methylpyridin-3-yl)oxy)cyclohexane-1-carboxylic acid], the IC50 amounted to 1090 nM. With `Cc1nc(-c2nnn(C)c2CNC(=O)N(C)C(C)C)ccc1O[C@H]1CCC[C@H](C(=O)O)C1` [Example 134, (1S,3S)-3-((6-(5-((3-isopropyl-3-methylureido)methyl)-1-methyl-1H-1,2,3-triazol-4-yl)-2-methylpyridin-3-yl)oxy)cyclohexane-1-carboxylic acid] the figure was 519 nM; with `Cc1nc(-c2nnn(C)c2NC(=O)NCc2ccccc2)ccc1O[C@H]1CCC[C@H](C(=O)O)C1` [Example 135, (1S,3S)-3-((6-(5-(3-benzylureido)-1-methyl-1H-1,2,3-triazol-4-yl)-2-methylpyridin-3-yl)oxy)cyclohexane-1-carboxylic acid], 329 nM; with `Cc1nc(-c2nnn(C)c2NC(=O)N[C@H](C)c2ccccc2)ccc1O[C@H]1CCC[C@H](C(=O)O)C1` [Example 136, (1S,3S)-3-((2-methyl-6-(1-methyl-5-(3-((R)-1-phenylethyl)ureido)-1H-1,2,3-triazol-4-yl)pyridin-3-yl)oxy) cyclohexane-1-carboxylic acid], 103 nM. The figure for `Cc1nc(-c2nnn(C)c2CNS(=O)(=O)N(C)CC2CCCC2)ccc1O[C@H]1CCC[C@H](C(=O)O)C1` [Example 137, (1S,3S)-3-((6-(5-(((N-(cyclopentylmethyl)-N-methylsulfamoyl)amino)methyl)-1-methyl-1H-1,2,3-triazol-4-yl)-2-methylpyridin-3-yl)oxy)cyclohexane-1-carboxylicacid] is 167 nM; for `CCCCN(C)S(=O)(=O)NCc1c(-c2ccc(O[C@H]3CCC[C@H](C(=O)O)C3)c(C)n2)nnn1C` [Example 138, (1S,3S)-3-((6-(5-(((N-butyl-N-methylsulfamoyl)amino)methyl)-1-methyl-1H-1,2,3-triazol-4-yl)-2-methylpyridin-3-yl)oxy)cyclohexane-1-carboxylic acid] it is 449 nM; for `Cc1nc(-c2nnn(C)c2CNS(=O)(=O)N(C)Cc2ccccc2)ccc1O[C@H]1CCC[C@H](C(=O)O)C1` [Example 139, (1S,3S)-3-((6-(5-(((N-benzyl-N-methylsulfamoyl)amino)methyl)-1-methyl-1H-1,2,3-triazol-4-yl)-2-methylpyridin-3-yl)oxy)cyclohexane-1-carboxylic acid] it is 313 nM.

As to `CCCC(C)OC(=O)Nc1c(-c2ccc(O[C@H]3CCC[C@H](C(=O)O)C3)c(C)n2)nnn1C` (stereo partly drawn) [Example 140, (1S,3S)-3-((2-methyl-6-(1-methyl-5-(((pentan-2-yloxy)carbonyl)amino)-1H-1,2,3-triazol-4-yl)pyridin-3-yl)oxy)cyclohexane-1-carboxylic acid], the IC50 amounted to 29 nM.

On to `Cc1nc(-c2nnn(C)c2NC(=O)OC2CCCCC2)ccc1O[C@H]1CCC[C@H](C(=O)O)C1` [Example 141, (1S,3S)-3-((6-(5-(((cyclohexyloxy)carbonyl)amino)-1-methyl-1H-1,2,3-triazol-4-yl)-2-methylpyridin-3-yl)oxy)cyclohexane-1-carboxylic acid], for which the IC50 was 78 nM. With `CCC(CC)OC(=O)Nc1c(-c2ccc(O[C@H]3CCC[C@H](C(=O)O)C3)c(C)n2)nnn1C` [Example 142, (1S,3S)-3-((2-methyl-6-(1-methyl-5-(((pentan-3-yloxy)carbonyl)amino)-1H-1,2,3-triazol-4-yl)pyridin-3-yl)oxy)cyclohexane-1-carboxylic acid] the figure was 30 nM.
